A short description of series [1]: Pharmacokinetics and bioavailability in male mice after a single dose. It counts as in vivo.
Series [2] in a line: Plasma and brain concentrations at 0.5 and 1 h. Format: in vivo, mice.
Another series deals with ALK3 (BMPR1A) (Homo sapiens (Human), UniProt P36894). The series is described as follows: In vitro kinase assay (33P ATP, 10 μM ATP). It counts as biochemical. As to conditions: read-out: Inhibition of ALK3 (IC50 μM).

Each structure is given as a SMILES string.

Usually Cmax stands for the highest concentration seen after dosing. By IC50 is commonly meant the concentration that inhibits the measured activity by half.

ALK3 (BMPR1A), sequence (P36894 24-532): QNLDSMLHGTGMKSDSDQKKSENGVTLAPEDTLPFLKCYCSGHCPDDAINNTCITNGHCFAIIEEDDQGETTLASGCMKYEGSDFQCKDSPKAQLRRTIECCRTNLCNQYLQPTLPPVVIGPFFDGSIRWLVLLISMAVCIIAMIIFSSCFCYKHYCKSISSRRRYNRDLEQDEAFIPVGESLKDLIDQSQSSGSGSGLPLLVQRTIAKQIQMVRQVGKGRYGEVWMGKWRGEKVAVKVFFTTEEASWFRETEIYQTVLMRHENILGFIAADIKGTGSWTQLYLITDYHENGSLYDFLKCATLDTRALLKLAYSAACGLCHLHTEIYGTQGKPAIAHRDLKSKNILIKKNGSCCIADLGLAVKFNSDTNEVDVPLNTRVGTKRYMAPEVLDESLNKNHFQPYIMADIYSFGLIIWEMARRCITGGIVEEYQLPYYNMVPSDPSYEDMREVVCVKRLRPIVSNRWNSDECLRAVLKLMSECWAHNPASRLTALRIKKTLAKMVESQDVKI

As to `CCc1cnc(-c2cc(Cl)ccc2F)cc1Nc1ccncc1C(=O)NC[C@H](C)O` (single isomer, unassigned) [11a], the Cmax in series [1] (oral, 10 mg/kg) turned out to be 3.48 µM.
Take `CC(C)c1cnc(-c2cc(Cl)ccc2F)cc1Nc1ncncc1C(=O)NC[C@H](C)O` (single isomer, unassigned) [12a]: the concentration in series [1] (mouse, plasma, intravenous, 2 mg/kg) peaked (Cmax) at 7.15 µM.
In the case of `CC(C)c1cnc(-c2cc(Cl)ccc2F)cc1Nc1ccncc1C(=O)NC[C@H](C)O` [2a, (S)-4-[[2-(5-chloro-2-fluoro-phenyl)-5-isopropyl-4-pyridyl]amino]-N-(2-hydroxypropyl)pyridine-3-carboxamide], the Brain concentration amounted to 73.2 ng/mL in series [2] (IV 2 mg/kg, 0.5 h); 82.4 ng/mL in series [2] (IV 2 mg/kg, 1 h); 202 ng/mL in series [2] (PO 10 mg/kg, 0.5 h); 114 ng/mL in series [2] (PO 10 mg/kg, 1 h). The Plasma concentration in series [2] (IV 2 mg/kg, 0.5 h) came to 310 ng/mL; in series [2] (IV 2 mg/kg, 1 h), 366 ng/mL; in series [2] (PO 10 mg/kg, 0.5 h), 1570 ng/mL; in series [2] (PO 10 mg/kg, 1 h), 905 ng/mL.
On to `C=C(C)c1cnc(-c2cc(Cl)ccc2F)cc1Nc1ccncc1C(=O)NC[C@H](C)O` [3a, (S)-4-(2-(5-chloro-2-fluorophenyl)-5-(prop-1-en-2-yl)pyridin-4-ylamino)-N-(2-hydroxypropyl)pyridine-5-carboxamide], for which the Brain concentration was 173 ng/mL in series [2] (IV 2 mg/kg, 0.5 h); 168 ng/mL in series [2] (IV 2 mg/kg, 1 h); 305 ng/mL in series [2] (PO 10 mg/kg, 0.5 h); 406 ng/mL in series [2] (PO 10 mg/kg, 1 h). Besides, the Plasma concentration in series [2] (IV 2 mg/kg, 0.5 h) stood at 432 ng/mL; in series [2] (IV 2 mg/kg, 1 h), 365 ng/mL; in series [2] (PO 10 mg/kg, 0.5 h), 1280 ng/mL; in series [2] (PO 10 mg/kg, 1 h) it was 1250 ng/mL.
In the case of `C[C@H](O)CNC(=O)c1cnccc1Nc1cc(-c2cc(Cl)ccc2F)ncc1N(C)C` [16a, (S)-4-(2-(5-chloro-2-fluorophenyl)-5-(dimethylamino)pyridin-4-ylamino)-N-(2-hydroxypropyl)nicotinamide], the Cmax in series [1] (oral, 10 mg/kg) came to 3.42 µM.
Consider `Fc1ccc(Cl)cc1-c1cc(Nc2ccnc3[nH]ccc23)c(C2CC2)cn1` [compound 32, 2-(5-chloro-2-fluorophenyl)-5-cyclopropyl-N-{1H-pyrrolo[2,3-b]pyridin-4-yl}pyridin-4-amine], for which the IC50 on ALK3 (BMPR1A) stood at 333 µM.

For the origin of these results see patent US11053216B2, “Compounds and methods of use” (Medivation Technologies LLC, priority 2014, dated 2021).
